The record followed here is patent US20110212235A1, “ANTIMICROBIAL SALT SOLUTIONS FOR CHEESE PROCESSING APPLICATIONS” (priority 2006, published 2011).

Data set [1] concerns L. monocytogenes. Put plainly: L. monocytogenes kill in cold salt/acid/surfactant solutions. Type of data set: cell-based. How it is done:
To study chilling brine application of the current embodiment, tests were run on 17% by weight solutions of formulas consisting of between 0.3% and 6.0% citric acid, between 50 and 500 ppm SLS, and between 94% and 99.7% sodium chloride. Test solutions were cooled to −7° C. and inoculated with several strains of L. monocytogenes.
An experiment was run to determine if solutions containing sodium chloride, sodium lauryl sulfate, and various acids would kill L. monocytogenes at cold temperatures. […] A 1.0 ml aliquot of this suspension was added to 100 ml of cold (−7° C.+2° C.) test solution and mixed well, providing an initial inoculum of 10^3 CFU/ml. The test solutions were incubated at −7° C.+/−2° C. for the duration of the experiment. At intervals of 0, 4, and 24 hours the L. monocytogenes populations in the test solutions were determined on Modified Oxford agar (MOX). MOX plates were incubated at 35° C.+/−2° C. for approximately 48 hours. Colonies were then counted and compared to the initial inoculum counts.
Each test solution was a 17% by weight solution of the listed formula prepared in soft water.
In another experiment, 17% by weight solutions of formulas containing various levels of sodium chloride, citric acid, and sodium lauryl sulfate were tested for effectiveness in killing L. monocytogenes at cold temperatures. The same test procedure was used as described above, except test solutions were plated on MOX with a Thin Agar Overlay of TSA (to aid in the recovery of injured cells).
In another experiment, two sets of solutions were tested. The first set (samples 1-12 in Table 10 below) was prepared in hard tap water and contained about 17.0% by mass of the formulation. These samples were inoculated with 10^3 CFU/ml L. monocytogenes by the same procedure as described above. A second set of samples was prepared from brine taken from a ready-to-eat meat processing operation. The recirculated brine had been used to chill packaged meat for one week. After a week of use the brine typically contains various types of aerobic psychotropic and mesophilic bacteria. This experiment was done in order to determine if the additives would kill the microorganisms naturally occurring in actual process brine from a plant. Since the spent chill brine samples already contained NaCl citric acid and/or SLS was added to provide an effective concentration of additive. One set of these samples (samples 13-17) were inoculated with 10^3 L. monocytogenes and the other set (samples 18-22) contained only the naturally occurring organisms in the spent chill brine. […] Other antimicrobials, such as quaternary ammonium compounds can lose significant activity in hard water, often necessitating further additives, such as EDTA as a chelating agent, to maintain antimicrobial activity.
Another set of experiments was done in order to determine the effectiveness of different acids and different types of surfactants in the antimicrobial salt formulations. In one experiment, test solutions containing ˜17% by weight of formulas containing various levels of sodium chloride, 100 ppm sodium lauryl sulfate, and various levels of different acids were tested for effectiveness in killing L. monocytogenes at cold temperatures. The same test procedure was used as described above (test solutions were plated on MOX TAL (Modified Oxford Medium with a Thin Agar Layer) with TSA). The controls were a solution of pure NaCl, a solution of a blend of 100 ppm SLS in NaCl, and a solution of a blend of 0.5% citric acid, 100 ppm SLS, and 99.5% NaCl.

Data set [2] has as its system L. monocytogenes. Put plainly: L. monocytogenes challenge in hot dog plant chill brine at −20° C. It is filed as cell-based. How it is done: 1. Inoculate a separate tube containing approximately 10 ml of Brain Heart infusion (BHI) broth with the following L. monocytogenes strains: H2446 (CDC Global Standard), Scott A (serotype 4b), 12243 (serotype 1/2a), and two strains isolated from the environment of a cooked meat and poultry facility, designated WP1, and WP4. Incubate the tubes at least 5 days at 7-10° C.+/−2° C. 2. Assume the growth to be 10^9 cfu/ml. Serially dilute each culture in cold (˜7° C.). Butterfield's Phosphate Buffered Water (PBW) to 10^8 cfu/ml (1:10). Since five cultures of L. monocytogenes are being used as a cocktail, begin the dilution series using […] of each culture added to 99 ml of PBW. 3. Plate (−6, −7, −8) the diluted culture to get the starting count of the inoculum on Modified Oxford medium (MOX) using a thin agar overlay (TAL) technique (overlay with Trypticase Soy Agar [TSA]) to revive injured cells. 4. Add 1 ml of the diluted cocktail to 100 ml of cold test solution. 5. Mix the solutions well. 6. Determine the L. monocytogenes population at time 0 and 4 hours. Plate −1 (0.1 ml on 1 plate), −2, −3, and −4 dilutions using spread plates on MOX TAL with TSA. 7. Incubate the test solutions at test temperature for the duration of the experiment. 8. Incubate the MOX TAL with TSA plates at 20° C.+/−2° C. for 72+/−3 hours. Count representative colonies, which are black, and multiply by the dilution factor. […]

Data set [3] can be described thus: pH and water activity of test solutions. It is filed as physicochemical.
The mark [4] stands for this setting: 17% by weight solution of the formula in soft water, Table 8.
Where [5] appears, read: 17% by weight solution in soft water, −7° C., MOX.
Where [6] appears, read: 17% by weight solution, −6.7° C., MOX with thin agar overlay.

Turning to alcohol ethoxylate, in data set [1] (4 hours, 17% by weight of formula of 99.7% sodium chloride, 0.3% citric acid, 500 ppm of listed surfactant, cold), the “L. monocytogenes, Time 4 Hours” value stood at 1 CFU/ml. Also, the “L. monocytogenes, Time 0” value in data set [1] (17% by weight of formula of 99.7% sodium chloride, 0.3% citric acid, 500 ppm of listed surfactant, cold) worked out at 1080 CFU/ml. The “effectiveness at lower concentration” value in data set [2] (12.5 ppm in the hot dog plant brine) is reported as “as effective as 50 ppm”. In data set [2] (50 ppm, within 4 hours, −20° C., hot dog plant brine), the “kill of L. monocytogenes inoculum” value is given as roughly 5 log.

Turning to `[Cl-].[Na+]` [100% NaCl, sodium chloride, reference compound], the “Water Activity” value in data set [3] (setting [4]) worked out at 0.88. Besides, the pH in data set [3] (setting [4]) was found to be 7.88; in data set [3] (17% by weight solution of the formula, Table 9) it was 7.66. The “L. monocytogenes, 24” value in data set [1] (24, about 17.0% of formulation in hard tap water) turned out to be 1100 cfu/ml. The “L. monocytogenes, 2 hr” value in data set [1] (2 hr, about 17.0% of formulation in hard tap water) is listed as 1100 cfu/ml. The results for the “L. monocytogenes, 4 hr” value in data set [1] (setting [5]) and in data set [1] (setting [6]) were 1250 CFU/ml and roughly 6250 CFU/ml, respectively. Besides, the “L. monocytogenes, 24 hr” value in data set [1] (setting [5]) is given as 1170 CFU/ml; in data set [1] (setting [6]), 2290 CFU/ml. In addition, the “L. monocytogenes, Time 0” value is reported as 1550 CFU/ml in data set [1] (17% by weight solution of the formula in soft water, −7° C., MOX); roughly 7000 CFU/ml in data set [1] (17% by weight solution, −6.7° C., MOX with thin agar overlay of TSA); 760 cfu/ml in data set [1] (about 17.0% of formulation in hard tap water (27 gpg), inoculated 10^3 CFU/ml).
